Data set [1] deals with T1, 5-hydroxytryptamine receptor 1A (Rattus norvegicus, UniProt P19327).
T1 sequence (P19327 whole entry): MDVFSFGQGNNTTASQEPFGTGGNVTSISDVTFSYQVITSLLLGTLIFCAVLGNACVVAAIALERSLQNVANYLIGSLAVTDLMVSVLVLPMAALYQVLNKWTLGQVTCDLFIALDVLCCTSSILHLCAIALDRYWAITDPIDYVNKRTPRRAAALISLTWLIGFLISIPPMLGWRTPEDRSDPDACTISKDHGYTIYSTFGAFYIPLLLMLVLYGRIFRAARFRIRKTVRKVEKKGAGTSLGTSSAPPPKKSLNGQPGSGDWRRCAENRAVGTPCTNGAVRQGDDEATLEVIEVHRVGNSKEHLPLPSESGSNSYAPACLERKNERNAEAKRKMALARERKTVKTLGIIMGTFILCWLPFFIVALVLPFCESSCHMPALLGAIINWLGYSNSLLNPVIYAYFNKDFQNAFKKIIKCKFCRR
The experiment in a line: Displacement of [3H]8-OH-DPAT from 5HT1A receptor in Sprague-Dawley rat brain cortex homogenate after 30 mins by liquid scintillation counting. The data set is classed as tissue-based. For orientation: In a radioligand displacement assay an active substance lowers the binding of a labelled ligand.

In data set [2] the target is 5-hydroxytryptamine receptor 2A (Rattus norvegicus, UniProt P14842). The experiment in a line: Displacement of [3H]Ketanserin from 5HT2A receptor in Sprague-Dawley rat brain cortex homogenate after 30 mins by liquid scintillation counting. The data set is classed as tissue-based.
The target in a further data set is D(2) dopamine receptor (Rattus norvegicus, UniProt P61169). The experiment in a line: Displacement of [3H]spiperone from dopamine D2 receptor in Sprague-Dawley rat striatum homogenate after 30 mins by liquid scintillation counting.
A short description of data set [3]: Acute toxicity in po dosed Kunming mouse assessed as survival measured after 24 hrs. The data set is classed as organism-based. The note with it: in vivo.
For data set [4], the system named is Mus musculus. The experiment in a line: Toxicity in po dosed Kunming mouse assessed as induction of catalepsy. The note with it: in vivo. Type of data set: organism-based.
Data set [5] in a line: in vivo. The settings on record: Kunming, mouse, po.
Description: Therapeutic index, ratio of ED50 for induction of catalepsy to ED50 for antipsychotic activity in po dosed Kunming mouse assessed as reversal of apomorphine-induced cage climbing response
Data set [6] relates to Mus musculus. The experiment in a line: Antipsychotic activity in po dosed Kunming mouse assessed as reduction in MK801-induced hyperactivity compound administered 30 mins prior to MK801 challenge measured for 90 mins post challenge. The data set is classed as functional.
In another data set the target is D(3) dopamine receptor (Rattus norvegicus, UniProt P19020). The experiment in a line: Displacement of [3H]7-OH-DPA from dopamine D3 receptor in Sprague-Dawley rat olfactory tubercle homogenate after 60 mins by liquid scintillation counting. The data set is classed as tissue-based.
Data set [7] concerns Mus musculus. The experiment in a line: Antipsychotic activity in po dosed Kunming mouse assessed as reversal of apomorphine-induced cage climbing response compound administered 30 mins prior to apomorphine challenge measured for 30 mins post challenge. The data set is classed as functional.
Data set [8] in a line: in vivo. The settings on record: Kunming, mouse, po. This is another data set of the same source.
Description: Therapeutic index, ratio of ED50 for induction of catalepsy to ED50 for antipsychotic activity in po dosed Kunming mouse assessed as reduction in MK801-induced hyperactivity
In another data set the target is Histamine H1 receptor (Cavia porcellus, UniProt P31389). The experiment in a line: Displacement of [3H]mepyramine from histamine H1 receptor in guinea pig cerebellum homogenate after 60 mins by liquid scintillation counting. The data set is classed as tissue-based.
Chain of Histamine H1 receptor (P31389 whole entry): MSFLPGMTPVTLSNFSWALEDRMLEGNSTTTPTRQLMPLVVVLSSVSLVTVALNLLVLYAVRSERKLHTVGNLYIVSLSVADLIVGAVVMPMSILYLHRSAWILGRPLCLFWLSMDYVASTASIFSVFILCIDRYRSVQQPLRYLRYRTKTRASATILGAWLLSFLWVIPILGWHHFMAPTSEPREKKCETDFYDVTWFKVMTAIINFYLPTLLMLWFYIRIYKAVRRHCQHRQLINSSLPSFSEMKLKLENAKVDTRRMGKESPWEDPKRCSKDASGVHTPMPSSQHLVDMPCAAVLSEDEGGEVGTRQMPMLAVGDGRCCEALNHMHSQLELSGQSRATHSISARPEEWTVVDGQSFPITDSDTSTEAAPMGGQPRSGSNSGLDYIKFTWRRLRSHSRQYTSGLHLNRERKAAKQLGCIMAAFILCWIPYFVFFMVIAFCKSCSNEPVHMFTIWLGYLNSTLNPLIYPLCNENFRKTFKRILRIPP

Chain of D(3) dopamine receptor (P19020 whole entry): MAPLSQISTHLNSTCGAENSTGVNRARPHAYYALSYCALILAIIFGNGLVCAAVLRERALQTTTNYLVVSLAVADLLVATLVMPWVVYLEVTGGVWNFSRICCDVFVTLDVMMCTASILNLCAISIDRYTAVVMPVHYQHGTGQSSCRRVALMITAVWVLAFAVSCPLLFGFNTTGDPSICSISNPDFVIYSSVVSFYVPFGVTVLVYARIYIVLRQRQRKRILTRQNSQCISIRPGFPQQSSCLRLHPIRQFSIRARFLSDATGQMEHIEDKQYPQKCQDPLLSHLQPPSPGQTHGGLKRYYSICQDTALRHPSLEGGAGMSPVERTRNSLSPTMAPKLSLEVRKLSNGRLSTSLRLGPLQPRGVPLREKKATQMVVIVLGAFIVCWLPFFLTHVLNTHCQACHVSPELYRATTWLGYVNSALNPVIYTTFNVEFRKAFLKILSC
Chain of 5-hydroxytryptamine receptor 2A (P14842 whole entry): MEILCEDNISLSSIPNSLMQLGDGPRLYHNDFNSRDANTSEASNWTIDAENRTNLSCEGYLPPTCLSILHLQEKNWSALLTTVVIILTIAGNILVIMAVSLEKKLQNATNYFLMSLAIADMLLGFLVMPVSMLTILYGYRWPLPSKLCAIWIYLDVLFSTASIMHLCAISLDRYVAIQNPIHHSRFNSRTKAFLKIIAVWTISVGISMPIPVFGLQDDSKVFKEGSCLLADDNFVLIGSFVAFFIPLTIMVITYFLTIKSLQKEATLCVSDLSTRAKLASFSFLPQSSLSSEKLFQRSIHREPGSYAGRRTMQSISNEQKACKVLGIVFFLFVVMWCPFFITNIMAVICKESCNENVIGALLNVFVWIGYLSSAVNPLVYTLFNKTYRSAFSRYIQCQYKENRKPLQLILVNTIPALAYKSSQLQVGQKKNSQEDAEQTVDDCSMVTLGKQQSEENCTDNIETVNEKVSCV
Chain of D(2) dopamine receptor (P61169 whole entry): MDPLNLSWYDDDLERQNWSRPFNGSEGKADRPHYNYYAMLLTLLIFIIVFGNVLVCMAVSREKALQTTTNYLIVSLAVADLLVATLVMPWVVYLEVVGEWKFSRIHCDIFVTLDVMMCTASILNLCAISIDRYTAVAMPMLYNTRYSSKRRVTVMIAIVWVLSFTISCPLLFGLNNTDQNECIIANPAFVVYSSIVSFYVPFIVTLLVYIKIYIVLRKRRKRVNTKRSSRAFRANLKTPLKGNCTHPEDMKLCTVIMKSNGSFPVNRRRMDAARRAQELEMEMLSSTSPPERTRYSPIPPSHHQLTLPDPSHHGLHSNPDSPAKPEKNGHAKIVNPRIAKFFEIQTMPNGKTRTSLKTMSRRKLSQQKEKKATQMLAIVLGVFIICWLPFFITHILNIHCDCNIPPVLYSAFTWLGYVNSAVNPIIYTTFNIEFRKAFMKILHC

Broadly, the Ki is a measure of affinity in units of concentration, obtained from inhibition or displacement. Lower therefore signals a stronger hold on the target. For `O=c1oc2cc(OCCCCN3CCC(c4noc5cc(F)ccc45)CC3)ccc2c2c1CCCC2`, the Ki in [1] was greater than 10000 nM; in data set [2], 126 nM; at D(2) dopamine receptor, 624 nM.

`COc1ccc(N2CCN(CCCCOc3ccc4c5c(c(=O)oc4c3)CCC5)CC2)cc1`: the inhibitory constant (Ki) was 1240 nM in [1], greater than 10000 nM in [2] and greater than 10000 nM at D(2) dopamine receptor.

Turning to `COc1ccccc1N1CCN(CCCCOc2ccc3c4c(c(=O)oc3c2Cl)CCC4)CC1`, the inhibition constant (Ki) in data set [1] is 157 nM; in data set [2], 105 nM; at D(2) dopamine receptor, 159 nM.

In general, LD50 refers to the dose expected to kill half of the subjects tested. A word on the ED50: it is the midpoint of the dose-response relation. Turning to `Cc1c(OCCCCN2CCC(c3noc4cc(F)ccc34)CC2)ccc2c3c(c(=O)oc12)CCC3`, the median lethal dose (LD50) at 24 h in [3] was greater than 2000 mg/kg. Besides, the Ki in data set [1] is 7.8 nM; in [2], 2.2 nM; at D(3) dopamine receptor, 13.6 nM; on D(2) dopamine receptor, 12.7 nM; at Histamine H1 receptor it was 1830 nM. In addition, the ED50 stood at 66.47 mg/kg in the data set on Mus musculus [4], 0.31 mg/kg in the data set with Mus musculus [6] and 0.61 mg/kg in the data set with Mus musculus [7]. Moreover, the values for the selectivity ratio in the data set “in vivo [5]” and in “in vivo [8]” were 109 and 214, respectively. The Activity result with Mus musculus [6] and in the data set with Mus musculus [7] was “Dose-dependent effect” in each case.

For `O=c1oc2cc(OCCCCN3CCC(c4noc5cc(F)ccc45)CC3)ccc2c2ccccc12`, the inhibition constant Ki (in data set [1]; in data set [2]; at D(2) dopamine receptor) was greater than 10000 nM each time.

For `O=c1oc2cc(OCCCN3CCC(c4noc5cc(F)ccc45)CC3)ccc2c2c1CCC2`, the inhibitory constant (Ki) in data set [1] is greater than 10000 nM; in data set [2] it was 188 nM; on D(2) dopamine receptor, greater than 10000 nM.

As to `O=c1oc2cc(OCCCCN3CCC(c4nc5ccccc5o4)CC3)ccc2c2c1CCC2`, the inhibitory constant (Ki) in [1] came out at 26.8 nM; in data set [2] it was 16.2 nM; on D(2) dopamine receptor it was 1890 nM.

Turning to `COc1cccc(N2CCN(CCCCOc3ccc4c5c(c(=O)oc4c3)CCC5)CC2)c1`, the inhibition constant Ki stood at 22.4 nM in data set [1], 895 nM in data set [2] and 1060 nM at D(2) dopamine receptor.

For `COc1ccccc1N1CCN(CCCCOc2ccc3c4c(c(=O)oc3c2C)CCC4)CC1`, the inhibition constant (Ki) in data set [1] is 349 nM; in [2], 175 nM; at D(2) dopamine receptor it was 570 nM.

`O=c1oc2cc(OCCCCN3CCN(c4cccc(Cl)c4Cl)CC3)ccc2c2c1CCC2`: the Ki in [1] amounted to 68 nM; in data set [2], 79.3 nM; on D(2) dopamine receptor it was 1900 nM.

Take `O=c1oc2cc(OCCCCN3CCC(c4noc5cc(F)ccc45)CC3)c(Cl)cc2c2c1CCC2`: the Ki is 140 nM in data set [1], 249 nM in data set [2] and 146 nM on D(2) dopamine receptor.

`CN1CCN(C2=Nc3cc(Cl)ccc3Nc3ccccc32)CC1` [CLOZAPINE]: the ED50 was 46.14 mg/kg in the data set with Mus musculus [4], 2.25 mg/kg with Mus musculus [6] and 3.97 mg/kg in the data set on Mus musculus [7].

Consider `COc1ccccc1N1CCN(CCCCOc2ccc3c4c(c(=O)oc3c2)CCCC4)CC1`, for which the inhibition constant (Ki) in data set [1] was 1120 nM; in [2], 1030 nM; on D(2) dopamine receptor, 757 nM.

`COc1ccccc1N1CCN(CCCCOc2ccc3c4c(c(=O)oc3c2)CCC4)CC1`: the inhibition constant Ki was found to be 0.2 nM in [1]; 3.9 nM in [2]; 178 nM on D(3) dopamine receptor; 5.6 nM at D(2) dopamine receptor; 699 nM at Histamine H1 receptor.

As to `COc1ccccc1N1CCN(CCCCOc2cc3oc(=O)c4c(c3cc2Cl)CCC4)CC1`, the values for the inhibition constant Ki (in data set [1]; in [2]; at D(2) dopamine receptor) were 84.8 nM, 36.6 nM and greater than 10000 nM, respectively.

For `O=c1oc2cc(OCCCCN3CCN(c4ccccc4)CC3)ccc2c2c1CCC2`, the inhibitory constant (Ki) in [1] was 56 nM; in data set [2], 59.2 nM; at D(2) dopamine receptor, greater than 10000 nM.

With `O=c1oc2cc(OCCCCCN3CCC(c4noc5cc(F)ccc45)CC3)ccc2c2c1CCC2`, the results for the Ki (in data set [1]; in data set [2]; at D(2) dopamine receptor) were 1050 nM, 426 nM and 698 nM, respectively.

On to `O=c1oc2cc(OCCCCN3CCN(c4ccc(F)cc4)CC3)ccc2c2c1CCC2`, for which the Ki in data set [1] is 28.9 nM; in data set [2], 16.5 nM; at D(2) dopamine receptor it was greater than 10000 nM.

On to `O=c1oc2cc(OCCCCN3CCC(c4nc5ccccc5s4)CC3)ccc2c2c1CCC2`, for which the inhibitory constant (Ki) in data set [1] was 1600 nM; in [2], 1870 nM; at D(2) dopamine receptor it was greater than 10000 nM.

With `O=c1oc2cc(OCCCCN3CCN(c4nsc5ccccc45)CC3)ccc2c2c1CCC2`, the inhibition constant Ki turned out to be 969 nM in data set [1] and 653 nM in data set [2].

With `O=c1oc2cc(OCCCCN3CCN(c4ccccn4)CC3)ccc2c2c1CCC2`, the inhibition constant (Ki) in [1] was 1260 nM; in data set [2] it was 1400 nM; at D(2) dopamine receptor, greater than 10000 nM.

Take `Cc1nc2n(c(=O)c1CCN1CCC(c3noc4cc(F)ccc34)CC1)CCCC2` [RISPERIDONE]: the values for the ED50 in the data set on Mus musculus [4], in the data set with Mus musculus [6] and in the data set with Mus musculus [7] were 0.43 mg/kg, 0.017 mg/kg and 0.02 mg/kg, respectively.

For `O=c1oc2cc(OCCCCN3CCN(c4cccc(C(F)(F)F)c4)CC3)ccc2c2c1CCC2`, the values for the Ki (in data set [1]; in data set [2]; at D(2) dopamine receptor) were 19.3 nM, 174 nM and greater than 10000 nM, respectively.

With `O=c1oc2cc(OCCCN3CCC(c4noc5cc(F)ccc45)CC3)ccc2c2ccccc12`, the Ki (in [1]; in data set [2]; on D(2) dopamine receptor) was greater than 10000 nM in each case.

For the compound `O=c1oc2cc(OCCCCN3CCC(c4noc5cc(F)ccc45)CC3)ccc2c2c1CCC2`, the Ki turned out to be 47.5 nM in data set [1]; 13.1 nM in data set [2]; 110 nM on D(3) dopamine receptor; 24.4 nM on D(2) dopamine receptor; 21.3 nM at Histamine H1 receptor.

As for `O=C(CCCN1CCC(O)(c2ccc(Cl)cc2)CC1)c1ccc(F)cc1` [HALOPERIDOL], the results for the median effective dose (ED50) in the data set with Mus musculus [4], with Mus musculus [6] and with Mus musculus [7] were 0.38 mg/kg, 0.16 mg/kg and 0.14 mg/kg, respectively. For the same compound, the selectivity ratio worked out at 2.71 in the data set “in vivo [5]” and 2.38 in “in vivo [8]”.

With `Cc1cccc(N2CCN(CCCCOc3ccc4c5c(c(=O)oc4c3)CCC5)CC2)c1C`, the Ki came to 22.1 nM in data set [1], 11.7 nM in data set [2] and 1600 nM on D(2) dopamine receptor.

With `COc1ccccc1N1CCN(CCCOc2ccc3c4c(c(=O)oc3c2)CCC4)CC1`, the figures for the Ki (in data set [1]; in data set [2]; at D(2) dopamine receptor) were 640 nM, 618 nM and greater than 10000 nM, respectively.

For `O=c1oc2c(Cl)c(OCCCCN3CCC(c4noc5cc(F)ccc45)CC3)ccc2c2c1CCC2`, the Ki in data set [1] was found to be 11.4 nM; in data set [2], 5.3 nM; at D(3) dopamine receptor, 13.9 nM; at D(2) dopamine receptor it was 18.9 nM; on Histamine H1 receptor it was 13.6 nM.

Source of the values: ChEMBL document CHEMBL3120114, “Synthesis and evaluation of new coumarin derivatives as potential atypical antipsychotics” (Eur J Med Chem, 2014).
